Measured values as given in PMC4373884, “Crystal Structures of the Kinase Domain of the Sulfate-Activating Complex in Mycobacterium tuberculosis” (PLoS ONE, 2015).

Key:
[1] = molecular target: T1, CysC (APS kinase domain of CysN) (Mycobacterium tuberculosis, UniProt P9WNM5)
T1 construct: gene cysNC

[2] = molecular target: T1, CysC (APS kinase domain of CysN); remark: listed apart in the source

T1 sequence (P9WNM5 424-612): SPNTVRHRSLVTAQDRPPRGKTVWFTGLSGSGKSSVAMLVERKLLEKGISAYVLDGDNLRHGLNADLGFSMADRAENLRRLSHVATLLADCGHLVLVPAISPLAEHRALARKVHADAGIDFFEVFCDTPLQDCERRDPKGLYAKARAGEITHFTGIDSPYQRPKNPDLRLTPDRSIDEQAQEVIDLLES

Row | SMILES | ADP-Glo luminescence kinase assay [1] | X-ray crystal structure [2]
1 | Nc1ncnc2c1ncn2[C@@H]1O[C@H](COP(=O)(O)OP(=O)(O)OP(=O)(O)O)[C@@H](O)[C@H]1O [ATP] | The CysC domain used in this study is catalytically active and shows APS kinase activity | 
2 | Nc1ncnc2c1ncn2[C@@H]1O[C@H](COP(=O)(O)OP(=O)(O)NP(=O)(O)O)[C@@H](O)[C@H]1O [AMP-PNP] |  | The bound ligands AMP-PNP and APS are well defined in electron density
3 | Nc1ncnc2c1ncn2[C@@H]1O[C@H](COP(=O)(O)OP(=O)(O)O)[C@@H](O)[C@H]1O [ADP] |  | The electron density maps clearly show the presence of one molecule of ADP per subunit
